Article PMC3131558, “Plitidepsin Has a Safe Cardiac Profile: A Comprehensive Analysis” (Marine Drugs, 2011)

Legend:
[1] = system: adult patients with advanced solid tumors or hematological malignancies; assay: Paired ECGs (QTc, heart rate) before and after plitidepsin infusion; format: in vivo, human; conditions: for QTc Pre-infusion / HR Post-Infusion / QTc Post-infusion / HR Pre-Infusion: mean (SD)
Experimental: Selected ECG variables (Bazett’s corrected QT interval (QTc) and heart rate (HR)) were analyzed in patients with paired ECG data (i.e., available before and after plitidepsin infusion, n = 136).
Pharmacokinetic (PK) data available from individual clinical trials (four phase I studies and nine phase II studies; see details in Table 1) and/or simulated data using population PK analyses were correlated with the occurrence of CAEs. In the individual studies, doses ranged from 0.13 to 8.00 mg/m^2, and were administered as 1 h or 24 h infusion weekly, 3 h or 24 h infusion bi-weekly, or 1 h infusion for 5 consecutive days every 3 weeks. To evaluate the potential relationship between blood plitidepsin concentrations and QTc and HR values, a total of 90 patients who had ECGs performed during treatment with plitidepsin and PK data during first infusion were analyzed. The plitidepsin concentration at the time when the ECG had been obtained was calculated using the whole blood plitidepsin concentration at the ECG times in which they were simulated taking the individual Bayesian PK parameters of the final population PK model and considering the real treatment history of each patient. In total, 411 patients and 5585 plitidepsin concentration measurements (including 2900 blood and 2685 plasma concentrations) were pooled in the population PK analysis. An open, 3-compartment disposition model with linear elimination and linear distribution from the central compartment to peripheral compartments was used to describe the PK of plitidepsin in plasma. Between and within subject variabilities were assumed to be log-normally distributed. PK exposure parameters (maximum concentration in plasma (Cmax) and area under the curve (AUC) from day 0 to day 28) and other dose-independent PK parameters (clearance, half-life, etc.) were used to evaluate the relationship between patient PK characteristics and the appearance of CAEs. For the statistical analysis of the relationship between the exposure parameters and the development or not of a CAE, a logistic regression model was used to analyze the incidence of the event.

[2] = system: adult patients with advanced solid tumors or hematological malignancies; assay: Multivariate logistic regression of variables associated with CAEs; format: in vivo, human; conditions: overall multivariate analysis
From the text: To avoid potential bias, candidate variables were explored by univariate analysis regardless of the relationship attributed to the CAE with plitidepsin by the investigators (related, unrelated or unknown). Univariate logistic regression was used to study the relationship between the occurrence of a CAE and categorical and continuous patient and disease characteristics, and other observed toxicities or laboratory abnormalities. Those variables found to be clinically relevant and/or statistically significant (or of borderline significance) in this analysis were further assessed as covariates in a multivariate analysis using logistic regression with stepwise variable selection and multiple correspondence analysis methods.

[3] = Population PK exposure (Cmax, AUC0-28day) by CAE category; format: in vivo, human; conditions: whole blood, simulated, mean (SD)
[4] = system: HERG; conditions: preclinical, in vitro; cited from earlier work
From the text: (§1) Plitidepsin, a cyclic depsipeptide of marine origin, is an investigational drug currently in clinical development as a single agent as well as in combination with other anticancer agents for the treatment of different solid tumors and hematological malignancies. […] CAE ...

[5] = system: Purkinje fibers; conditions: preclinical, in vitro; cited from earlier work
From the text: as §1

[6] = system: dog; conditions: preclinical; cited from earlier work
From the text: as §1

[7] = system: guinea pig Langendorff preparation; conditions: exploratory study; cited from earlier work
From the text: as §1

[8] = system: human malignant cell lines; conditions: in vitro and in vivo, at nanomolar concentration ranges; cited from earlier work
From the text: Aplidin® (plitidepsin) is a cyclic depsipeptide originally isolated from the Mediterranean tunicate Aplidium albicans and currently produced by chemical synthesis. Plitidepsin has been proven to be active against several human malignant cell lines both in vitro and in vivo at nanomolar concentration ranges.

[9] = All (n = 136 pairs), ECG within 4 h after end of infusion
[10] = Myocardial injury (n = 4 pairs)
[11] = No cardiac event (n = 116 pairs)
[12] = Rhythm abnormalities (n = 18 pairs)
[13] = Other rhythm abnormalities (n = 10)

plitidepsin
QTc Pre-infusion ([1]; All (n = 136 pairs), Bazett's corrected): 426.77 (38.78) msec | HR Post-Infusion [1, 9]: 82.46 (13.17) bpm | QTc Post-infusion [1, 9]: 429.28 (40.25) msec | HR Pre-Infusion ([1]; All (n = 136 pairs)): 79.07 (15.33) bpm | HR Post-Infusion ([1]; Cardiac event (n = 20 pairs)): 80.10 (10.87) bpm | HR Pre-Infusion ([1]; Cardiac event (n = 20 pairs)): 74.05 (13.39) bpm | QTc Post-infusion ([1]; Cardiac event (n = 20 pairs)): 442.60 (32.09) msec | QTc Pre-infusion ([1]; Cardiac event (n = 20 pairs)): 437.75 (28.65) msec | HR Post-Infusion [1, 10]: 77.75 (12.55) bpm | HR Pre-Infusion [1, 10]: 68.75 (10.34) bpm | QTc Post-infusion [1, 10]: 437.50 (15.20) msec | QTc Pre-infusion [1, 10]: 429.00 (29.15) msec | HR Post-Infusion [1, 11]: 82.86 (13.53) bpm | HR Pre-Infusion [1, 11]: 79.92 (15.53) bpm | QTc Post-infusion [1, 11]: 426.98 (41.18) msec | QTc Pre-infusion [1, 11]: 424.88 (40.06) msec | HR Post-Infusion [1, 12]: 80.44 (11.30) bpm | HR Pre-Infusion [1, 12]: 75.44 (13.39) bpm | QTc Post-infusion [1, 12]: 442.67 (33.79) msec | QTc Pre-infusion [1, 12]: 439.44 (29.79) msec | Relationship between whole blood plitidepsin concentrations and QTc interval ([1]; all ECGs during treatment (263 ECGs), simulated concentrations): No apparent relationship | OR for CAE: Tumor type, Prostate or pancreatic cancer ([2]; p = 0.0017): 4.217 | OR for CAE: Cardiac risk and relevant concomitant medication at baseline, Presence ([2]; p = 0.0072): 3.034 | OR for CAE: Hypokalemia (worst per patient), Grade ≥ 2 ([2]; p = 0.0095): 3.851 | OR for CAE: Myalgia (at baseline), Presence ([2]; p = 0.0140): 5.015 | OR for CAE: Hemoglobin (worst per patient), <10 g/dL ([2]; p = 0.0208): 2.195 | AUC0–28day ([3]; Cardiac Adverse Event (n = 36)): 3236 (2955) h·ng/mL | Cmax ([3]; Cardiac Adverse Event (n = 36)): 61.0 (27.9) ng/mL | Cmax ([3]; Irregular supraventricular tachycardia (n = 12)): 63.7 (34.6) ng/mL | AUC0–28day ([3]; Myocardial Injury (n = 11)): 4077 (3653) h·ng/mL | Cmax ([3]; Myocardial Injury (n = 11)): 69.5 (28.2) ng/mL | Cmax ([3]; Other myocardial injury (n = 4)): 64.7 (30.6) ng/mL | AUC0–28day [3, 13]: 2064 (1449) h·ng/mL | Cmax [3, 13]: 56.8 (26.2) ng/mL | Cmax ([3]; Possible ischemic related (n = 7)): 72.2 (28.8) ng/mL | Cmax ([3]; Regular supraventricular tachycardia (n = 6)): 57.2 (23.1) ng/mL | Cmax ([3]; Rhythm Abnormalities (n = 25)): 61.5 (29.8) ng/mL | Cardiotoxic profile in HERG assay [4]: did not show a cardiotoxic profile | Cardiotoxic profile in study using Purkinje fibers [5]: did not show a cardiotoxic profile | Cardiotoxic profile in in vivo study in the dog [6]: did not show a cardiotoxic profile | Cardiac effects of escalating doses in guinea pig Langendorff preparation [7]: did not show a cardiotoxic profile | Activity against several human malignant cell lines [8]: active
